What was measured:
[1] = test system: MDA-MB-231; test: Cytotoxicity on human tumor cell lines (ATPLite Assay Kit); type: cell-based; conditions: MDA-MB-231, Breast cancer
Protocol: (§1) Eighteen human tumor cell lines were treated with 62.5, 125, 250, 500, or 1000 ng/mL HuCTB006 or different concentrations of chemotherapy drugs, which act as positive controls. […] The culture medium for SK-Hep-1, HepG2, HCT116, SW480, WiDr (1×NEAA), MIA-PaCa-2 (2.5% Horse serum) MDA-MB-231 (1 mM NaPyr, 1×MEM-NEAA, 1×MEM VITAMIN) was DMEM. The culture medium for COLO205, BXPC3 (2 mM glutamin, 10 mM HEPES), Panc2.03 (15FBS, 1 mM NaPyr, 1×MEM-NEAA, […], 10 mM HEPES), H2122, OVCAR3 (1 mM NaPyr, 10 ug/ml human insulin, 10 mM HEPES, 2.5 g/L glucose), Molt-4 (HEPES, 2.5 g/l glocose), Jurkat (HEPES, 2.5 g/l glocose) was RPMI-1640, the culture medium for SK-MES-1 was Eagle's MEM, the culture medium for 2-LMP and DY36T2 was IMEM, and the culture medium for SUM102 (5 ug/ml insulin) was F-12K. The cell viability was determined by ATPLite Assay Kit. If the IC50 value was lower than 62.5 ng/mL, the cells were treated with higher concentration of CTB006 in the second round of experiments to determine IC50 value.

[2] = test system: 2-LMP; test: as above; type: cell-based; conditions: Breast cancer
Protocol: as §1

[3] = test system: Panc2.03; test: as above; type: cell-based; conditions: Panc2.03, Pancreatic cancer
Protocol: as §1

[4] = test system: COLO205; test: as above; type: cell-based; conditions: COLO205, Colorectal cancer
Protocol: as §1

[5] = test system: MIA-PaCa-2; test: as above; type: cell-based; conditions: MIA-PaCa-2, Pancreatic cancer
Protocol: as §1

[6] = test system: SK-MES-1; test: as above; type: cell-based; conditions: SK-MES-1, Lung cancer
Protocol: as §1

[7] = test system: SW480; test: as above; type: cell-based; conditions: SW480, Colorectal cancer
Protocol: as §1

[8] = test system: BXPC3; test: as above; type: cell-based; conditions: BXPC3, Pancreatic cancer
Protocol: as §1

[9] = test system: HCT116; test: as above; type: cell-based; conditions: HCT116, Colorectal cancer
Protocol: as §1

[10] = test system: H2122; test: as above; type: cell-based; conditions: H2122, Lung cancer
Protocol: as §1

[11] = test system: SUM102; test: as above; type: cell-based; conditions: SUM102, Breast cancer
Protocol: as §1

[12] = test system: SK-Hep-1; test: as above; type: cell-based; conditions: SK-Hep-1, Liver cancer
Protocol: as §1

[13] = test system: BGC803; test: In vitro cytotoxic sensitivity of CTB006; type: cell-based, human; conditions: BGC803, Stomach cancer
[14] = test system: MDA-MB-361; test: In vitro cytotoxic sensitivity of CTB006; type: cell-based, human; conditions: MDA-MB-361, Breast cancer
[15] = test system: SW620; test: In vitro cytotoxic sensitivity of CTB006; type: cell-based, human; conditions: SW620, Colorectal cancer
[16] = test system: H460; test: In vitro cytotoxic sensitivity of CTB006; type: cell-based, human; conditions: H460, Lung cancer
[17] = test system: HT-29; test: In vitro cytotoxic sensitivity of CTB006; type: cell-based, human; conditions: HT-29, Colorectal cancer
[18] = test system: Colo205; test: Human colon cancer Colo205 subcutaneous model (Day 28 after treatment); type: in vivo, nude mice; conditions: for TGI calculated using the tumor volume / TGI calculated using the tumor weights: repeated experiment
Protocol: Tumor cells (i.e., MIA-PaCa-2, WiDr, H2122, colo205) were inoculated in nude mice's flank at 5×10^6 cells per mouse. The mice were grouped when the average volume of tumors reached about 100˜200 mm^3. “QW”=weekly dose. “Q3d”=dosed every third day. “BiW”=biweekly.
The bodyweight and major/minor axis of the mice were measured twice a week, and the tumor volumes were calculated using the formula: Tumor volume=1/2×major axis[…]. […] “T” represents average tumor volume of the experimental group (cm^3), and “C” represents average tumor volume of the control group (cm^3). The animals were monitored at all times. The bodyweight and major/minor axis or mice were measured twice a week.
Tumor volumes were represented with average±standard error. […] P<0.05 represents significant difference.

[19] = HuCTB006 0.2 mg/kg i.v. QW × 4W
[20] = HuCTB006 0.2 mg/kg i.v. QW × 4W, 0.2 mg/kg
[21] = HuCTB006 0.6 mg/kg i.v. QW × 4W
[22] = HuCTB006 1.8 mg/kg i.v. QW × 4W
[23] = HuCTB006 5.4 mg/kg i.v. QW × 4W

HuCTB006: Monospecific humanized chimeric monoclonal antibody directed to TRAIL-R2 receptor; heavy chain SEQ ID NO: 14, light chain SEQ ID NO: 12
In vitro cytotoxic sensitivity of CTB006 [1]: Responder | In vitro cytotoxic sensitivity of CTB006 [2]: Responder | In vitro cytotoxic sensitivity of CTB006 [3]: Partial-responder | In vitro cytotoxic sensitivity of CTB006 [4]: Responder | In vitro cytotoxic sensitivity of CTB006 [5]: Responder | In vitro cytotoxic sensitivity of CTB006 [6]: Responder | In vitro cytotoxic sensitivity of CTB006 [7]: Partial-responder | In vitro cytotoxic sensitivity of CTB006 [8]: Responder | In vitro cytotoxic sensitivity of CTB006 [9]: Responder | In vitro cytotoxic sensitivity of CTB006 [10]: Responder | In vitro cytotoxic sensitivity of CTB006 [11]: Partial-responder | In vitro cytotoxic sensitivity of CTB006 [12]: Partial-responder | In vitro cytotoxic sensitivity of CTB006 [13]: Non-responder | In vitro cytotoxic sensitivity of CTB006 [14]: Non-responder | In vitro cytotoxic sensitivity of CTB006 [15]: Non-responder | In vitro cytotoxic sensitivity of CTB006 [16]: Partial-responder | In vitro cytotoxic sensitivity of CTB006 [17]: Non-responder | T/C % (Calculated using tumor volume) [18, 19]: 66.90% | Time of tumor volume changed significantly [18, 19]: 10 Days after first treatment | Tumor Volume Mean ± SEM [18, 19]: 1.24 ± 0.20 cm^3 | Tumor weight Mean ± SEM [18, 19]: 0.84 ± 0.14 g | TGI (Calculated using tumor volume) [18, 20]: 35.62% | TGI (Calculated using tumor weight) [18, 20]: 33.30% | T/C % (Calculated using tumor volume) [18, 21]: 14.41% | Tumor Volume Mean ± SEM [18, 21]: 0.29 ± 0.13 cm^3 | Tumor weight Mean ± SEM [18, 21]: 0.20 ± 0.10 g | T/C % (Calculated using tumor volume) [18, 22]: 19.91% | Tumor Volume Mean ± SEM [18, 22]: 0.38 ± 0.16 cm^3 | Tumor weight Mean ± SEM [18, 22]: 0.23 ± 0.12 g | T/C % (Calculated using tumor volume) [18, 23]: 14.80% | Time of tumor volume changed significantly [18, 23]: 7~10^2 Days after first treatment | Tumor Volume Mean ± SEM [18, 23]: 0.28 ± 0.10 cm^3 | Tumor weight Mean ± SEM [18, 23]: 0.15 ± 0.07 g | Bodyweights ([18]; all HuCTB006 treatment groups): did not show any notably changes | Tumor regression ([18]; first experiment, treatment groups): four animals of HuCTB006 treatment groups showed tumor regression | TGI calculated using the tumor volume ([18]; HuCTB006 0.2 mg/kg): 56.16% | TGI calculated using the tumor weights ([18]; HuCTB006 0.2 mg/kg): 58.68% | TGI calculated using the tumor volume ([18]; HuCTB006 0.6 mg/kg): 79.75% | TGI calculated using the tumor weights ([18]; HuCTB006 0.6 mg/kg): 82.34% | TGI calculated using the tumor volume ([18]; HuCTB006 1.8 mg/kg): 93.65% | TGI calculated using the tumor weights ([18]; HuCTB006 1.8 mg/kg): 94.33% | TGI calculated using the tumor volume ([18]; HuCTB006 5.4 mg/kg): 87.12% | TGI calculated using the tumor weights ([18]; HuCTB006 5.4 mg/kg): 89.90%
